Reference: US6537976B1, “Dialysis solutions containing water soluble vitamins and nutrients” (priority 1997, dated 2003)
Read-outs that look alike come from different tables or passages of the source.

Legend:
[1] = cited from earlier work
[2] = In vitro hemodialysis of uremic plasma using dialysate solutions with and without added vitamins
Procedure: In the following experiment uremic plasma was dialyzed against dialysate solutions containing different concentrations of vitamins, and the total plasma levels of vitamins after dialysis was measured.
Plasma obtained from a uremic subject undergoing plasmapharesis was pooled and samples were taken for estimation of baseline vitamin levels. The total volume of 2.7 liters was divided into three equal aliquots of 900 ml each. Hemodialysis was performed on each aliquot of plasma using a F-60 polysulfone dialyzer (Fresenius Inc., USA). The plasma flow rate was 350 ml/min and the dialysate flow rate was 500 ml/min.
In the first experiment, vitamins were not added to the dialysate. In the second experiment, vitamins were added to the dialysate at a concentration that was close to the upper limit of normal, to simulate the maintenance of physiologic levels. In the third experiment, vitamins were added to the dialysate at a concentration that was 10 times that in the second experiment, with the aim of achieving supratherapeutic levels.

plasma proteins = settings: subjects with normal kidney function; effects of uremia not examined; cited from earlier work
[3] = cited from earlier work; remark: listed apart in the source
[4] = cited from earlier work; remark: listed apart in the source
[5] = subjects with normal renal function; cited from earlier work
[6] = vitamin in the dialysate 0 μg/L
[7] = vitamin in the dialysate 15 μg/L
[8] = vitamin in the dialysate 150 μg/L
[9] = vitamin in the dialysate 60 μg/L
[10] = vitamin in the dialysate 600 μg/L

Molecule: Nc1nc2ncc(CNc3ccc(C(=O)N[C@@H](CCC(=O)O)C(=O)O)cc3)nc2c(=O)[nH]1 [Folic acid, folic acid]
- Plasma concentration in hemodialysis patients receiving supplementation in high doses ([1]; 15 mg folic acid daily for 8 weeks, predialysis, mean ± SD): 927 ± 575 μg/L with 15
- Plasma concentration of the vitamin after dialysis for 0 min (Baseline) [2, 6]: 5.8 ng/mL
- Plasma concentration of the vitamin after dialysis for 45 min [2, 6]: 1.7 ng/mL
- Plasma concentration of the vitamin after dialysis for 90 min [2, 6]: 3.3 ng/mL
- Plasma concentration of the vitamin after dialysis for 0 min (Baseline) [2, 7]: 5.8 ng/mL
- Plasma concentration of the vitamin after dialysis for 45 min [2, 7]: 32.2 ng/mL
- Plasma concentration of the vitamin after dialysis for 90 min [2, 7]: 39.8 ng/mL
- Plasma concentration of the vitamin after dialysis for 0 min (Baseline) [2, 8]: 5.8 ng/mL
- Plasma concentration of the vitamin after dialysis for 45 min [2, 8]: 256.5 ng/mL
- Plasma concentration of the vitamin after dialysis for 90 min [2, 8]: 272.2 ng/mL

Molecule: Cc1ncc(CO)c(CO)c1O.Cl [pyridoxine hydrochloride]
- effect of addition to the dialysate on plasma PLP concentration ([2]; assay specific for esters such as PLP, does not measure pyridoxine): did not result in an increase in PLP concentration

Molecule: Cc1ncc(C[n+]2csc(CCO)c2C)c(N)n1 [Thiamine, thiamine]
- Fraction of the plasma content that is protein bound (binding in words) (plasma proteins): albumin
- Whole blood thiamine in hemodialysis patients receiving supplementation in high doses ([1]; 600-900 mg thiamine per week, predialysis, mean ± SD): 50 ± 12 µg/L
- Plasma concentration of the vitamin after dialysis for 0 min (Baseline) [2, 6]: 17 ng/mL
- Plasma concentration of the vitamin after dialysis for 90 min [2, 6]: 3.6 ng/mL
- Plasma concentration of the vitamin after dialysis for 0 min (Baseline) [2, 9]: 17 ng/mL
- Plasma concentration of the vitamin after dialysis for 90 min [2, 9]: 72 ng/mL
- Ratio of Plasma to dialysate at the end of dialysis (VP/VD) [2, 9]: 1.2
- Plasma concentration of the vitamin after dialysis for 0 min (Baseline) [2, 10]: 17 ng/mL
- Plasma concentration of the vitamin after dialysis for 90 min [2, 10]: >100 ng/mL

Molecule: O=C1O[C@H]([C@@H](O)CO)C(O)=C1O [Ascorbic acid (vit C), ascorbic acid]
- Plasma concentration in hemodialysis patients receiving supplementation in high doses ([1]; 500 mg ascorbic acid/day for 2 weeks, mean ± SE): 28 ± 2 mg/L (mean ± SE),
- Plasma concentration in hemodialysis patients receiving supplementation in high doses, Range ([1]; 500 mg ascorbic acid/day for 2 weeks, range): Range: 15-37 mg/L,

Molecule: Cc1ncc(COP(=O)(O)O)c(C=O)c1O [Pyridoxal 5′-phosphate (vit B6), pyridoxal 5-phosphate]
- Fraction of the plasma content that is protein bound (binding in words) (plasma proteins): albumin

Molecule: cyanocobalamin [Vitamin B12]
- Fraction of the plasma content that is protein bound (binding in words) (plasma proteins): Protein bound
- solubility in water [3]: soluble in water
- Plasma concentration in hemodialysis patients receiving supplementation in high doses ([1]; vitamin B12, Bostom et al., predialysis, mean ± SD): 1.3 ± 0.4 ng/mL

Molecule: C[N+](C)(C)C[C@H](O)CC(=O)[O-] [L-carnitine]
- Fraction of the plasma content that is protein bound (binding in words) (plasma proteins): not bound
- solubility in water [3]: water soluble
- patients showing global improvement in clinical status ([4]; 20 mg/kg intravenous after each hemodialysis session for 6 months, control group 18%): 50%
- clinical effects of carnitine administration ([4]; chronic hemodialysis patients): improvement in intradialytic hypotension, muscle cramps, exercise capacity, a sense of well being
- Free carnitine plasma concentration in hemodialysis patients receiving supplementation in high doses ([1]; 20 mg/Kg L-carnitine intravenously three times a week following hemodialysis for 6 months, mean ± SE): Free carnitine 250 ± 11 μmol/L
- fraction of the administered dose excreted in the urine [5]: 58-65%
